# Assay results reported in article PMC10961089, “Epidermal growth factor receptor inhibition potentiates chemotherapeutics‐mediated sensitization of metastatic breast cancer stem cells” (Cancer Reports, 2024).
# Experiments:
# [1] = test system: CD24^+‐breast cancer cells; assay: Mammosphere forming efficiency, sorted cells; assay type: cell-based, human; conditions: doxorubicin 0.01 μM + 1e
# Description: (§1) TNBC cell lines—MDA‐MB‐231, MDA‐MB‐468, or the sorted CD24^+‐breast cancer cells, and CD24^−/CD44^+‐breast CSC populations from MDA‐MB‐231 [6] were seeded at a 1 × 10^4 cells/well density in mammosphere‐specific medium—Medium‐171 (Gibco, USA), supplemented with mammary epithelial growth supplement (MEGS) and B‐27 (Life technologies, Auckland, New Zealand) as described previously.[6], [26] TNBC cells or the sorted breast cancer cells and CSCs were plated onto poly‐hydroxyethyl methacrylate (Sigma‐Aldrich, USA) coated 24‐well plates and subjected to treatment with DMSO (Vehicle), Doxorubicin (0.01 and 0.1 μM) alone or with the potential EGFR inhibitors (compounds—1c, 1e, 1g, 1h, 1j, and 1k (5 μM) based on their low IC50 values) or a commercial EGFR inhibitor, PD153035 (10 μM). The suspension cultures were incubated under 5% CO2, at 37°C in a humidified atmosphere for 7 days. At the end of the treatment period, the images of mammospheres were taken at 10× magnification using a microscope (Olympus IX71, Tokyo, Japan). The size of spheres was measured using ImageJ software (NIH, Bethesda, MD, USA).
# [2] = test system: CD24^−/CD44^+‐breast CSCs; assay: Mammosphere forming efficiency, sorted cells; assay type: cell-based, human; conditions: doxorubicin 0.01 μM + 1e
# Description: as §1
# [3] = test system: CD44, p‐EGFR, p‐JNK, p‐p38 in tumor tissue; assay: Immunohistochemical analysis of tumor tissue (colocalization with GFP, Pearson's correlation coefficient); assay type: in vivo, C57BL/6 mice
# Description: (§2) Animal studies have been carried out with the prior approval of the Institutional Animal Ethics Committee (IICT/IAEC/025/2023). C57BL/6 female mice of age 6–8 weeks (N = 35) were initially immunosuppressed with cyclophosphamide (50 mg/kg of body weight, i.p) on alternate days for 2 weeks. For generating a preclinical orthotopic xenograft tumor model, 2 × 10^6 GFP expressing sorted stable CD24^+‐breast cancer cells and CD24^−/CD44^+‐breast CSCs were orthotopically xeno‐transplanted subcutaneously at the fourth mammary fat pad of immune‐suppressed mice (n = 5/group). Subsequently, intratumoral administration of Doxorubicin at a low dose (2.5 mg/kg of body weight), high dose (10 mg/kg of body weight), and/or combinatorial treatment of the potent EGFR inhibitor, compound 1e (50 mg/kg of body weight) or the commercial EGFR inhibitor, PD153035 (50 mg/kg of body weight) with a low dose of doxorubicin was performed to the palpable tumors of breast CSCs at day‐3 post‐transplantation.
# Immunohistochemical analysis was performed by immunostaining the tissue serial sections with primary antibodies against GFP, CD44, p‐EGFR, p‐JNK, and p‐p38 (CST, USA) followed by alexafluor‐488/555 conjugated secondary antibodies (R&D systems, USA) and mounting medium containing DAPI.[28], [29] Images were captured using a confocal microscope (Olympus FV10i, Tokyo, Japan). Pearson's correlation coefficient was utilized to determine the co‐localization of GFP/CD44, GFP/p‐EGFR, GFP/p‐JNK, and GFP/p‐p38 (Table. ST3).
# [4] = test system: BAX, BCL‐2, cytochrome‐C in MDA‐MB‐231 cells; assay: Immunoblot analysis of apoptotic markers; assay type: cell-based, human; conditions: MDA-MB-231, doxorubicin 0.01 μM + compound 5 μM
# Description: MDA‐MB‐231 cells were subjected to the treatment of doxorubicin (0.01 μM) in the absence/presence of the selected potent compounds—1c, 1e, 1g, 1h, 1j, and 1k at 5 μM concentration or a standard EGFR inhibitor, PD153035 (10 μM) for 48 h. Separately, TNBC cells—MDA‐MB‐231 were also treated with doxorubicin (0.01 and/or 0.1 μM) in the absence/presence of potent EGFR inhibitor/compound, 1e at 5 μM concentration or a standard EGFR inhibitor, PD153035 (10 μM) for 48 h. Cells were then lysed to isolate the total protein and subjected to SDS‐PAGE, transferred onto a poly (vinylidene difluoride) membrane, probing with primary antibodies (Table ST2) against apoptotic markers—BAX, BCL‐2, cytochrome‐C, and β‐actin followed by incubation with horseradish peroxidase‐conjugated secondary antibodies (CST, Waltham, MA, USA) as described previously.[6] Visualization was performed using G: Box (Syngene, Cambridge, UK).
# [5] = test system: human CD44, ALDH1A1, Fibronectin, N‐Cadherin, Vimentin in tumor tissue; assay: qRT-PCR of human CSC/EMT genes in tumor tissues; assay type: in vivo, C57BL/6 mice
# Description: Additionally, total RNA was isolated from tumor tissues and utilized for cDNA synthesis (Thermo Scientific, Massachusetts, USA). To determine the transcriptional regulation of expression of EMT genes in tumor tissues subjected to various treatment regimes, quantitative real‐time PCR (qRT‐PCR) analysis was performed as described previously[28] using human gene‐specific forward and reverse primers of EMT genes. Amplification of Eukaryotic 18S rRNA served as an internal control and was utilized to calculate the fold change in expression.[29]
# as §2
# MDA‐MB‐468 = assay: Cell migration (chemotaxis), Boyden-Chamber assay; assay type: cell-based, human; conditions: Doxorubicin 0.01 μM + compound 5 μM (PD153035 10 μM) vs 10% FBS and Doxorubicin alone
# Description: (§3) TNBC cell lines—MDA‐MB‐231, MDA‐MB‐468, and the sorted CD24^+‐breast cancer cells, and CD24^−/CD44^+‐breast CSC populations from MDA‐MB‐231 [6] were seeded at a density of 1 × 10^6 cells/well to evaluate their migratory potential by Boyden‐Chamber assay. […] At the end of the treatment period, the cells were plated at a density of 5 × 10^3 cells/well in the upper chamber of the Boyden chamber assembly and 10% FBS in the lower chamber was used as a chemoattractant. Separately, the cells in the upper chamber were treated with Doxorubicin (0.01–0.1 μM) alone or with the potential EGFR inhibitors (compounds—1c, 1e, 1g, 1h, 1j, and 1k (5 μM) based on their low IC50 values) or a commercial EGFR inhibitor, PD153035 (10 μM) and incubated for 4 h followed by fixation and staining as described previously.[28], [29]
# MDA‐MB‐231 = assay: Cell migration (chemotaxis), Boyden-Chamber assay; assay type: cell-based, human; conditions: Doxorubicin 0.01 μM + compound 5 μM (PD153035 10 μM) vs 10% FBS and Doxorubicin alone
# Description: as §3
# [6] = test system: CD24^−/CD44^+‐breast CSC populations; assay: Cell migration (chemotaxis), Boyden-Chamber assay, sorted cells; assay type: cell-based, human; conditions: sorted CD24^−/CD44^+ CSCs; Doxorubicin 0.01 μM + 1e 5 μM vs 10% FBS
# Description: as §3
# [7] = test system: CD24^+‐breast cancer cells; assay: as above; assay type: cell-based, human; conditions: Doxorubicin 0.01 μM + 1e 5 μM vs 10% FBS
# Description: as §3
structure (smiles),measurement,setting,value
c1cncc(C(c2c[nH]c3ccccc23)c2c[nH]c3ccccc23)c1 [1e],mammosphere forming efficiency,[1],significant decrease
same,mammosphere forming efficiency,[2],significant decrease
same,colocalization of GFP/p‐EGFR,"[3]; with doxorubicin low dose, CSC xenograft tumor tissue",decreased significantly
same,"activation of apoptotic signaling mediators (GFP/p‐JNK, GFP/p‐p38 colocalization)","[3]; with low dose doxorubicin, comparable with high dose doxorubicin alone",increased activation
same,colocalization of GFP and CD44 (Pearson's correlation coefficient),"[3]; with low dose of doxorubicin, CSC xenograft tumor tissue",comparable to the high dose of doxorubicin treated group
same,BAX protein level,[4]; 48 h,elevation
same,BAX/BCL2 ratio,[4]; 48 h,elevation
same,BCL2 levels,[4]; 48 h,marked decrease
same,doxorubicin‐induced expression of Cyt‐C,[4]; vs the other compounds,comparatively higher levels
same,expression level of human CD44 in tumor tissue,[5]; with doxorubicin low dose vs low dose doxorubicin alone,significantly decreased
same,"expression of human mesenchymal genes ALDH1A1, Fibronectin, N‐Cadherin, Vimentin","[5]; with low dose of doxorubicin, CSC xenograft",significantly decreased
same,migratory potential,MDA‐MB‐468,significant decrease
same,migratory potential,MDA‐MB‐231,significant decrease
same,migratory potential,[6],significantly reduced
same,migratory potential,[7],significantly reduced
